Measurements from PubChem BioAssay AID1259407 (Chemical Carcinogenesis Research Information System (CCRIS), 2018).
Active and inactive are the calls of the source. The rule behind the calls is not given here.

Tested on: CCRIS mutagenicity, Ames/micronucleus/aberration tests
Assay: CCRIS mutagenicity studies
[1] = Test System: AMES SALMONELLA TYPHIMURIUM, Strain/Indicator: TA98, Metabolic Activation: NONE, Method: PREINCUBATION
[2] = Test System: AMES SALMONELLA TYPHIMURIUM, Strain/Indicator: TA100, Metabolic Activation: NONE, Method: PREINCUBATION

`Cc1cccc2cccnc12` was tested, and the mutagenic call (Test System: AMES SALMONELLA TYPHIMURIUM, Strain/Indicator: TA98, Metabolic Activation: HAMSTER, LIVER, S-9, AROCLOR 1254 (30%), Method: PREINCUBATION) was “active; positive”, the mutagenic call [1] was “inactive; negative” and the mutagenic call (Test System: AMES SALMONELLA TYPHIMURIUM, Strain/Indicator: TA98, Metabolic Activation: RAT, LIVER, S-9, AROCLOR 1254 (30%), Method: PREINCUBATION) was “inactive; negative”. The mutagenic call (Test System: AMES SALMONELLA TYPHIMURIUM, Strain/Indicator: TA100, Metabolic Activation: HAMSTER, LIVER, S-9, AROCLOR 1254 (30%), Method: PREINCUBATION) was “active; positive”, the mutagenic call [2] was “inactive; negative” and the mutagenic call (Test System: AMES SALMONELLA TYPHIMURIUM, Strain/Indicator: TA100, Metabolic Activation: RAT, LIVER, S-9, AROCLOR 1254 (30%), Method: PREINCUBATION) was “inactive; negative”. For the same compound, the mutagenic call (Test System: AMES SALMONELLA TYPHIMURIUM, Strain/Indicator: TA100, Metabolic Activation: S-9, Method: PREINCUBATION) was “inactive; negative” and the mutagenic call (Test System: UDS RODENT HEPATOCYTES, Strain/Indicator: THY INCORP (NON-S-PHASE), Metabolic Activation: NONE, Method: AUTORADIOGRAPHY) was “active; positive”.
`C[Si](C)(Cl)Cl` was tested, and the mutagenic call (Test System: AMES SALMONELLA TYPHIMURIUM, Strain/Indicator: TA98, Metabolic Activation: HAMSTER, LIVER, S-9, AROCLOR 1254, Method: PREINCUBATION) was “inactive; negative”, the mutagenic call [1] was “inactive; negative” and the mutagenic call (Test System: AMES SALMONELLA TYPHIMURIUM, Strain/Indicator: TA98, Metabolic Activation: NONE, Method: STANDARD PLATE) was “inactive; negative”. For the same compound, the mutagenic call (Test System: AMES SALMONELLA TYPHIMURIUM, Strain/Indicator: TA98, Metabolic Activation: RAT LIVER S-9, AROCLOR 1254, Method: STANDARD PLATE) was “inactive; negative”, the mutagenic call (Test System: AMES SALMONELLA TYPHIMURIUM, Strain/Indicator: TA98, Metabolic Activation: RAT, LIVER, S-9, AROCLOR 1254, Method: PREINCUBATION) was “inactive; negative” and the mutagenic call (Test System: AMES SALMONELLA TYPHIMURIUM, Strain/Indicator: TA100, Metabolic Activation: HAMSTER, LIVER, S-9, AROCLOR 1254, Method: PREINCUBATION) was “inactive; negative”. The mutagenic call [2] was “inactive; negative”, the mutagenic call (Test System: AMES SALMONELLA TYPHIMURIUM, Strain/Indicator: TA100, Metabolic Activation: NONE, Method: STANDARD PLATE) was “inactive; negative” and the mutagenic call (Test System: AMES SALMONELLA TYPHIMURIUM, Strain/Indicator: TA100, Metabolic Activation: RAT LIVER S-9, AROCLOR 1254, Method: STANDARD PLATE) was “inactive; negative”. The mutagenic call (Test System: AMES SALMONELLA TYPHIMURIUM, Strain/Indicator: TA100, Metabolic Activation: RAT, LIVER, S-9, AROCLOR 1254, Method: PREINCUBATION) was “inactive; negative”, the mutagenic call (Test System: AMES SALMONELLA TYPHIMURIUM, Strain/Indicator: TA1535, Metabolic Activation: HAMSTER, LIVER, S-9, AROCLOR 1254, Method: PREINCUBATION) was “inactive; negative” and the mutagenic call (Test System: AMES SALMONELLA TYPHIMURIUM, Strain/Indicator: TA1535, Metabolic Activation: NONE, Method: PREINCUBATION) was “inactive; negative”. For the same compound, the mutagenic call (Test System: AMES SALMONELLA TYPHIMURIUM, Strain/Indicator: TA1535, Metabolic Activation: NONE, Method: STANDARD PLATE) was “inactive; negative”, the mutagenic call (Test System: AMES SALMONELLA TYPHIMURIUM, Strain/Indicator: TA1535, Metabolic Activation: RAT LIVER S-9, AROCLOR 1254, Method: STANDARD PLATE) was “inactive; negative” and the mutagenic call (Test System: AMES SALMONELLA TYPHIMURIUM, Strain/Indicator: TA1535, Metabolic Activation: RAT, LIVER, S-9, AROCLOR 1254, Method: PREINCUBATION) was “inactive; negative”. For the same compound, the mutagenic call (Test System: AMES SALMONELLA TYPHIMURIUM, Strain/Indicator: TA1537, Metabolic Activation: HAMSTER, LIVER, S-9, AROCLOR 1254, Method: PREINCUBATION) was “inactive; negative”, the mutagenic call (Test System: AMES SALMONELLA TYPHIMURIUM, Strain/Indicator: TA1537, Metabolic Activation: NONE, Method: PREINCUBATION) was “inactive; negative” and the mutagenic call (Test System: AMES SALMONELLA TYPHIMURIUM, Strain/Indicator: TA1537, Metabolic Activation: NONE, Method: STANDARD PLATE) was “inactive; negative”. The mutagenic call (Test System: AMES SALMONELLA TYPHIMURIUM, Strain/Indicator: TA1537, Metabolic Activation: RAT LIVER S-9, AROCLOR 1254, Method: STANDARD PLATE) was “inactive; negative”, the mutagenic call (Test System: AMES SALMONELLA TYPHIMURIUM, Strain/Indicator: TA1537, Metabolic Activation: RAT, LIVER, S-9, AROCLOR 1254, Method: PREINCUBATION) was “inactive; negative” and the mutagenic call (Test System: AMES SALMONELLA TYPHIMURIUM, Strain/Indicator: TA1538, Metabolic Activation: HAMSTER, LIVER, S-9, AROCLOR 1254, Method: PREINCUBATION) was “inactive; negative”. The mutagenic call (Test System: AMES SALMONELLA TYPHIMURIUM, Strain/Indicator: TA1538, Metabolic Activation: NONE, Method: PREINCUBATION) was “inactive; negative”, the mutagenic call (Test System: AMES SALMONELLA TYPHIMURIUM, Strain/Indicator: TA1538, Metabolic Activation: NONE, Method: STANDARD PLATE) was “inactive; negative” and the mutagenic call (Test System: AMES SALMONELLA TYPHIMURIUM, Strain/Indicator: TA1538, Metabolic Activation: RAT LIVER S-9, AROCLOR 1254, Method: STANDARD PLATE) was “inactive; negative”. For the same compound, the mutagenic call (Test System: AMES SALMONELLA TYPHIMURIUM, Strain/Indicator: TA1538, Metabolic Activation: RAT, LIVER, S-9, AROCLOR 1254, Method: PREINCUBATION) was “inactive; negative”, the mutagenic call (Test System: E. COLI, Strain/Indicator: P3078(POL A-), Metabolic Activation: NONE, Method: SPOT TEST) was “inactive; negative” and the mutagenic call (Test System: E. COLI, Strain/Indicator: P3078 POLA, Metabolic Activation: RAT LIVER S-9, AROCLOR 1254, Method: SPOT TEST) was “inactive; negative”. For the same compound, the mutagenic call (Test System: E. COLI, Strain/Indicator: W3110, Metabolic Activation: NONE, Method: SPOT TEST) was “inactive; negative”, the mutagenic call (Test System: E. COLI, Strain/Indicator: W3110, Metabolic Activation: RAT LIVER S-9, AROCLOR 1254, Method: SPOT TEST) was “inactive; negative” and the mutagenic call (Test System: MOUSE LYMPHOMA, Strain/Indicator: L5178Y (TK+/TK-), Metabolic Activation: RAT, LIVER, S-9, AROCLOR 1254, Method: SUSPENSION/PLATE) was “inactive; negative. reevaluation of results: inconclusive”. For the same compound, the mutagenic call (Test System: MOUSE LYMPHOMA, Strain/Indicator: L5178Y (TK+/TK-), Metabolic Activation: RAT, LIVER, S-9, Method: SUSPENSION/PLATE) was “inactive; negative”.
With `CCCN(CCCC(=O)O)N=O` the mutagenic call (Test System: AMES SALMONELLA TYPHIMURIUM, Strain/Indicator: TA1535, Metabolic Activation: RAT, LIVER, S-9, KC500 OR PHENOBARBITAL, Method: LIQUID SUSPENSION) was “active; positive”.
For `CC1(C)Cc2cccc(O)c2O1`, the mutagenic call (End Point: IN VIVO MICRONUCLEUS, Test System: BONE MARROW POLYCHROMATIC ERYTHROCYTES, Species: MOUSE, Strain/Sex: KM/MALE, FEMALE, Route: IP INJECTION) was “inactive; negative”.
`CC(=O)Nc1ccc(/C=C/c2ccccc2)cc1` was tested, and the mutagenic call (Test System: CHINESE HAMSTER OVARY, Strain/Indicator: AS52/6-THIOGUANINE, Metabolic Activation: NONE) was “inactive; negative” and the mutagenic call (Test System: CHINESE HAMSTER OVARY, Strain/Indicator: AS52/6-THIOGUANINE, Metabolic Activation: RAT LIVER S-9, 2-ACETYLAMINOFLUORENE) was “active; positive”.
